We go through three compounds from US12486301B2, “8-fluoro-4-alkylumbelliferyl α-D-glucopyranoside, biological sterilization indicator including the same and its use in a method of determining efficacy of a sterilization process” (Solventum Intellectual Properties Company, priority 2019, dated 2025).

This data set in a line: Enzyme substrate degradation in culture media at various temperatures (fluorescence). Particulars: 0.3 mg/mL; for MEASURED FLUORESCENCE, RFU 70° C. 15 min: 70° C. dry heat block 15 min; for MEASURED FLUORESCENCE, RFU 100° C. 15 + 15 min: 100° C. 15 min, second time 15 min; for MEASURED FLUORESCENCE, RFU 100° C. 15 min: 100° C. heat block 15 min; for MEASURED FLUORESCENCE, RFU RT 15 min: room temperature (24.5° C.). The data set is classed as physicochemical. Here is the method:
Culture media was prepared by dissolving 5 g/L peptone C (BD 211921) and 12 g/L phytone peptone (BD BBL 211906) in deionized water. The pH was adjusted with 1 N NaOH or 0.1 N HCl, the media brought to volume, and then filter sterilized with a 0.22 micron PES filter. Stock solutions ([…]) of 8′-fluoro-4′-methylumbelliferyl-α-D-glucopyranoside, 6′-fluoro-4′-methylumbelliferyl-α-D-glucopyranoside, and 4-methylumbelliferyl-α-D-glucopyranoside were prepared in DMSO. The aforementioned substrates were added to culture media at a final concentration of 0.1 mg/ml and media were then 0.22 μm filter sterilized.
(§1) One milliliter of filter-sterilized culture media (pH 6) containing 0.3 mg/ml of 8′-fluoro-4′-methylumbelliferyl-[…]-D-glucopyranoside substrate was transferred to three 1.5 ml microcentrifuge tubes. One of the 1.5 ml tubes was kept at room temperature (24.5° C.). The second tube was placed in a 70° C. dry heat block for 15 min and the third tube was placed in a 100° C. heat block for 15 min. Tubes were kept at room temperature for 30 min following heat exposure, briefly vortexed and centrifuged to collect liquid. One hundred microliters of culture media with substrate from each of the tubes was transferred to two wells (100 microliters per well) of a black 96-well microtiter plate with (NUNC #165301, Thermo Fisher Scientific). The top of the plate was covered with an optically clear sealing film (product #4311971, Applied Biosystems Corporation). Fluorescence readings (360 nm excitation/455 nm emission at 50% gain) were taken from the top of the plate.
(§2) The tube exposed to 100° C. (with 800 ul of remaining media with substrate) was exposed for a second time to 100° C. for 15 min in a dry heat block. One hundred microliters of culture media with substrate from the tube was transferred to two wells (100 microliters per well) of a black 96-well microtiter plate with (NUNC #165301, Thermo Fisher Scientific). The top of the plate was covered with an optically clear sealing film (product #4311971, Applied Biosystems Corporation). Fluorescence readings (360 nm excitation/455 nm emission at 50% gain) were taken from the top of the plate. In Table 9, the mean fluorescence values detected (RFU) for each of the heating conditions are reported.
as §1, with “7)” for “6)”
as §2, with “10,” for “9,”, “reported. […]” for “reported.”

The mark [1] stands for this setting: pH 6 culture media, no spores, 360 nm excitation/455 nm emission.

Molecules are shown by their SMILES.

As for `Cc1cc(=O)oc2c(F)c(O[C@H]3O[C@H](CO)[C@@H](O)[C@H](O)[C@H]3O)ccc12` [Example 1, 8′-Fluoro-4′-methylumbelliferyl […]-D-glucopyranoside], the “MEASURED FLUORESCENCE, RFU 70° C. 15 min” value is recorded as 799.5 RFU (pH 6 culture media), 759.5 RFU (pH 7 culture media), 832 RFU (pH 8 culture media) and 905.5 RFU (pH 9 culture media). Also, the “MEASURED FLUORESCENCE, RFU 100° C. 15 + 15 min” value is on record as 1114.5 RFU (pH 6 culture media), 1529 RFU (pH 7 culture media), 1543 RFU (pH 8 culture media) and 1770.5 RFU (pH 9 culture media). For the same compound, the “MEASURED FLUORESCENCE, RFU 100° C. 15 min” value reads like this: (pH 6 culture media) 957.5 RFU; (pH 7 culture media) 1195 RFU; (pH 8 culture media) 1274 RFU; (pH 9 culture media) 1343.5 RFU. The “MEASURED FLUORESCENCE, RFU RT 15 min” value runs as follows: under setting [1], 751.5 RFU; (pH 7 culture media) 740.5 RFU; (pH 8 culture media) 774 RFU; (pH 9 culture media) 811.5 RFU.
`Cc1cc(=O)oc2cc(O[C@H]3O[C@H](CO)[C@@H](O)[C@H](O)[C@H]3O)c(F)cc12` [Example 6F-MUG, 6′-Fluoro-4′-methylumbelliferyl […]-D-glucopyranoside]: the “MEASURED FLUORESCENCE, RFU 70° C. 15 min” value runs as follows: (pH 6 culture media) 932.5 RFU; (pH 7 culture media) 1012 RFU; (pH 8 culture media) 1079.5 RFU; (pH 9 culture media) 1218 RFU. Besides, the “MEASURED FLUORESCENCE, RFU 100° C. 15 + 15 min” value is, setting by setting: (pH 6 culture media) 2005 RFU; (pH 7 culture media) 2654.5 RFU; (pH 8 culture media) 3160.5 RFU; (pH 9 culture media) 3964 RFU. For the same compound, the “MEASURED FLUORESCENCE, RFU 100° C. 15 min” value was found to be 1486.5 RFU (pH 6 culture media), 1690.5 RFU (pH 7 culture media), 2121.5 RFU (pH 8 culture media) and 2728 RFU (pH 9 culture media). In addition, the “MEASURED FLUORESCENCE, RFU RT 15 min” value reads like this: under setting [1], 897.5 RFU; (pH 7 culture media) 924.5 RFU; (pH 8 culture media) 983 RFU; (pH 9 culture media) 994.5 RFU.
As to `Cc1cc(=O)oc2cc(O[C@H]3O[C@H](CO)[C@@H](O)[C@H](O)[C@H]3O)ccc12` [MUG, 4′-methylumbelliferyl-α-D-glucopyranoside], the “MEASURED FLUORESCENCE, RFU 70° C. 15 min” value reads like this: (pH 6 culture media) 774.5 RFU; (pH 7 culture media) 809 RFU; (pH 8 culture media) 823.5 RFU; (pH 9 culture media) 862.5 RFU. Also, the “MEASURED FLUORESCENCE, RFU 100° C. 15 + 15 min” value runs as follows: (pH 6 culture media) 888 RFU; (pH 7 culture media) 893.5 RFU; (pH 8 culture media) 939 RFU; (pH 9 culture media) 1099 RFU. Moreover, the “MEASURED FLUORESCENCE, RFU 100° C. 15 min” value (pH 6 culture media) stood at 829 RFU; the “MEASURED FLUORESCENCE, RFU 100° C. 15 min” value (pH 7 culture media) amounted to 862 RFU; the “MEASURED FLUORESCENCE, RFU 100° C. 15 min” value (pH 8 culture media) is listed as 857.5 RFU; the “MEASURED FLUORESCENCE, RFU 100° C. 15 min” value (pH 9 culture media) was determined as 978.5 RFU. The “MEASURED FLUORESCENCE, RFU RT 15 min” value by setting is: under setting [1], 751 RFU; (pH 7 culture media) 671 RFU; (pH 8 culture media) 788.5 RFU; (pH 9 culture media) 694 RFU.
